Measured values: ChEMBL document CHEMBL4602687, “Dual Binding to Orthosteric and Allosteric Sites Enhances the Anticancer Activity of a TRAP1-Targeting Drug” (J Med Chem, 2020)
Changes are numbered by the printed parent chain. Activity calls are given as the source filed them. No cut-off for these calls is given here.

Experiments:
[1] = biological target: T1, Heat shock protein 75 kDa, mitochondrial (Homo sapiens) (UniProt Q12931); assay: Inhibition of TRAP1 in human PC3 cells assessed as increase in AMPK phosphorylation at 5 uM measured after 2 to 12 hrs by Western blot analysis; format: cell-based; settings: PC-3
T1 sequence (whole entry): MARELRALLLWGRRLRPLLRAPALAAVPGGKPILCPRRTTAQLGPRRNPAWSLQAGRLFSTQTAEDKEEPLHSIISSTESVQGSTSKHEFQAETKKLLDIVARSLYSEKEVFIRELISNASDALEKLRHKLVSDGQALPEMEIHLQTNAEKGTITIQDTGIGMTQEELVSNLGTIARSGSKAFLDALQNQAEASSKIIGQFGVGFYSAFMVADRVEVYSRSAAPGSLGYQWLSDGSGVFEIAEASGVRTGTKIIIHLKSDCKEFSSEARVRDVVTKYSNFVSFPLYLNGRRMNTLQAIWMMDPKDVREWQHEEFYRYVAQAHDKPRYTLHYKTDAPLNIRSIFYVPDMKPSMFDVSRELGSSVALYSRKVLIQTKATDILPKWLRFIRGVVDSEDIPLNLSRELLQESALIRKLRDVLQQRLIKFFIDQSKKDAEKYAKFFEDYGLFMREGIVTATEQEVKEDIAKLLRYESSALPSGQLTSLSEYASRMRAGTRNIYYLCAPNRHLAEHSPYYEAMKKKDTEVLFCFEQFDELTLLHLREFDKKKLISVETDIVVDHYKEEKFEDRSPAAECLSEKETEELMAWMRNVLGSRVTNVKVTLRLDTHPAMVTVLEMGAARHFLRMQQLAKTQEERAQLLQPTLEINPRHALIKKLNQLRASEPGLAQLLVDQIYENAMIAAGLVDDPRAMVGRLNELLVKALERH

Homo sapiens = species: Homo sapiens; assay: Inhibition of recombinant full-length human TRAP1 W383/W4F mutant expressed in Escherichia coli BL21 (DE3) assessed as intrinsic fluorescence quenching of tryptophan residues at 10 uM measured after 1 hr by fluorescence spectrophotometric method
[2] = biological target: T1, Heat shock protein 75 kDa, mitochondrial (Homo sapiens); assay: Allosteric modulation of recombinant wild-type human TRAP1 ATPase activity expressed in Escherichia coli BL21 (DE3) assessed as increase in substrate Km at 5 uM preincubated for 0.5 hrs followed by varying levels of ATP addition and measured after 3 hrs using PiColorLock Gold reagent by colorimetric assay-based Lineweaver-Burk plot analysis relative to control
Mus musculus [3] = assay: In vivo inhibition of TRAP1 in nude mouse xenografted with human NCI-H460 cells assessed as increase in CHOP expression at 5 mg/kg, ip administered daily by Western blot analysis; format: functional, organism-based
[4] = tested on: T2, Heat shock protein 75 kDa, mitochondrial (Homo sapiens), Q12931 [R114E]; assay: Stimulation of recombinant […] human TRAP1 R114E mutant ATPase activity expressed in Escherichia coli BL21 (DE3) up to 20 uM preincubated for 0.5 hrs followed by ATP addition and measured after 3 hrs by PiColorLock Gold reagent based colorimetric assay
T2 sequence (whole entry): T1 sequence (whole entry) with R114E

Mus musculus [5] = assay: In vivo inhibition of TRAP1 in nude mouse xenografted with human NCI-H460 cells assessed as increase in AMPK phosphorylation at 5 mg/kg, ip administered daily by Western blot analysis; format: functional, organism-based
[6] = biological target: T1, Heat shock protein 75 kDa, mitochondrial (Homo sapiens); assay: Inhibition of TRAP1 in human PC3 cells assessed as reduction in ATP concentration at 10 uM measured after 2 hrs; format: cell-based; settings: PC-3
NCI-H460 = assay: Antitumor activity against human NCI-H460 cells xenografted in nude mouse assessed as tumor growth inhibition at 5 mg/kg, ip administered daily; format: functional, organism-based
[7] = biological target: T1, Heat shock protein 75 kDa, mitochondrial (Homo sapiens); assay: Stimulation of recombinant wild-type human TRAP1 ATPase activity expressed in Escherichia coli BL21 (DE3) at 2 to 5 uM preincubated for 0.5 hrs followed by 2 mM ATP addition and measured after 3 hrs by PiColorLock Gold reagent based colorimetric assay relative to control
[8] = biological target: T1, Heat shock protein 75 kDa, mitochondrial (Homo sapiens); assay: Inhibition of recombinant wild-type human TRAP1 chaperone activity expressed in Escherichia coli BL21 (DE3) at 5 uM preincubated for 30 mins followed by denatured luciferase and ATP addition by luciferase refolding assay
[9] = biological target: T1, Heat shock protein 75 kDa, mitochondrial (Homo sapiens); assay: Inhibition of TRAP1 in human PC3 cells assessed as increase in reactive oxygen species generation at 10 uM measured after 2 hrs by Mito-SOX probe based flow cytometry; format: cell-based; settings: PC-3

inhibition [1]: Active
inhibition (Homo sapiens): Active
fold change (FC) [2]: 3
Activity [4]: Active
inhibition [6]: Active
fold change (FC) [7]: 2
inhibition [8]: Active
inhibition [9]: Active
SMILES: Nc1ncnc2c1nc(Sc1cc3c(cc1I)OCO3)n2CCCCCCCCCC[P+](c1ccccc1)(c1ccccc1)c1ccccc1
inhibition (Mus musculus [3]): Active
inhibition (Mus musculus [5]): Active
TGI (NCI-H460): Active
